Data set [1] has as its system BxPC-3 cells. As to the kind of experiment: Colony formation (clonogenic) assay, BxPC-3. It counts as cell-based, human.
Protocol: Clonogenic assay was performed as described [12]. The cells were seeded at a very low density (500 cells/well) and allowed to attach to the substratum. They were then treated with 10 μM Carbidopa and the colonies were allowed to grow for two weeks. The wells were washed every other day and fresh Carbidopa was added to the wells. At the end of the two-week period, the wells were washed and the colonies were visualized with KaryoMax Giemsa stain after fixation with methanol. The stain was eluted with 1% sodium dodecyl sulfate in 0.2 NaOH and the absorbance was measured at 630 nm.
The next data set relates to Panc-1 cells. As to the kind of experiment: Colony formation assay, Panc-1. It counts as cell-based. Conditions: Homo sapiens; Panc-1, colony formation; read-out: Carbidopa concentration for 50% inhibition of growth. The text has this: Colony formation assay was used to assess the effect.
The next data set deals with Capan-2 cells. As to the kind of experiment: Colony formation (clonogenic) assay, Capan-2. The data set is classed as cell-based, human. As to conditions: Capan-2, 10 μM, two weeks. Here is the method:
(§1) Cell proliferation. Clonogenic assay was performed as described. The cells were seeded at a very low density (500 cells/well) and allowed to attach to the substratum. […] The wells were washed every other day and fresh Carbidopa was added to the wells. At the end of the two-week period, the wells were washed and the colonies were visualized with KaryoMax Giemsa stain after fixation with methanol. The stain was eluted with 1% sodium dodecyl sulfate in […] and the absorbance was measured at 630 nm. Inhibition of pancreatic cancer cell proliferation by Carbidopa and its potential relevance to the ability of the drug to inhibit IDO1. To test whether Carbidopa has anticancer effect, the inventors used pancreatic cancer as a model. For this, the inventors first conducted a colony formation assay with a human pancreatic normal cell line (hTERT-HPNE) and two human pancreatic cancer cell lines (BxPC-3 and Capan-2). […] To corroborate these in vitro data, the inventors performed subcutaneous xenografts in athymic nude mice using BxPC-3 cells.

In another data set the test system is hTERT-HPNE cells. The experiment in a line: Colony formation (clonogenic) assay, normal pancreatic cell line. It counts as cell-based, human. As to conditions: 10 μM, two weeks. On the procedure:
as §1

The next data set has as its system MB-231 cells. As to the kind of experiment: Colony formation assay, ER-negative breast cancer cells. It counts as cell-based, human. The source says: Breast cancer occurs in different subtypes: estrogen receptor-positive, estrogen receptor-negative, and BRCA1-mutant. The MMTV-PyMT-Tg mice represent estrogen receptor-positive breast cancer at least at the initial stages. To assess the potential of Carbidopa for the treatment of ER-negative breast cancer, the inventors used the human breast cancer cell line MB-231, a well-established model to study ER-negative breast cancer in model systems. The inventors monitored the effect of Carbidopa (dose response) on the growth of these cells using the colony formation assay.

The subject of a further data set is HCC-1937 cells. As to the kind of experiment: Colony formation assay, BRCA-1 mutant breast cancer cells. The data set is classed as cell-based, human. The text has this:
Breast cancer occurs in different subtypes: estrogen receptor-positive, estrogen receptor-negative, and BRCA1-mutant. Mutations in BRCA-1 represent a small percentage of breast cancers in women but the disease is inheritable. […] To assess the potential of Carbidopa for the treatment of mutant BRCA-1-driven breast cancer, the inventors used the human breast cancer cell line HCC-1937, a well-established model to study mutant BRCA-1-driven breast cancer in model systems. The inventors monitored the effect of Carbidopa (dose response) on the growth of these cells using the colony formation assay.

For data set [2], the system named is BxPC-3 cells. The experiment in a line: Subcutaneous BxPC-3 xenograft in athymic nude mice. The data set is classed as in vivo, mouse.
Protocol: FIGS. 2A and 2B show the in vivo effect of Carbidopa on the growth of BxPC-3 cells in mouse xenografts. The cells were injected subcutaneously in athymic nude mice. Carbidopa (1 mg/mouse) was injected intraperitoneally (i.p.) two days prior to the injection of the tumor cells (prevention mode). Drug injection was continued every day at the same dose. […] The growth of the tumor at the injected site was monitored every other day.
Xenograft studies. Female athymic nu/nu mice (8-week-old) were allowed to acclimatize to the environment for about a week before the start of the experiment. The animals were divided into control and treatment groups and injected with phosphate-buffered saline (control group) and Carbidopa @ 1 mg/mouse/day) (treatment group) intraperitoneally, at least 5 days prior to tumor cell injection. BxPC-3 (10×10^6 cells in 30% matrigel) was injected subcutaneously at the right flank of the mice. The treatment continued all through the experimental period. Tumor size in different groups were measured using a caliper and the tumor volume was calculated using the formula (width^2×length)/2.
Data set [3] deals with spontaneous breast cancer driven by the polyoma middle T antigen oncogene. The experiment in a line: Spontaneous breast cancer in MMTV-PyMT-Tg mice. The data set is classed as in vivo. As to conditions: 1 mg/mouse i.p. The source says: The MMTV-PyMT-Tg mice develop spontaneous breast tumors within 2 months of age. […] The drug treatment was started at 4 weeks of age and continued for two months. The mice were photographed at the end of this experimental period. The circles indicate the tumor size in two representative control mice and two representative Carbidopa-treated mice. […] The MMTV-PyMT-Tg mice develop spontaneous breast tumors within 2 months of age. […] The drug treatment was started at 4 weeks of age and continued for three months. The mice were photographed at the end of the study period. The circles indicate the tumor size in two representative control mice and two representative Carbidopa-treated mice.

Data set [4] has as its system Ki-67, p-mTOR, HIF1α and Cyp1a1 protein expression. As to the kind of experiment: Immunohistochemical analysis in MMTV-PyMT-Tg mice. The data set is classed as in vivo, mouse. As to conditions: Carbidopa-treated MMTV-PyMT-Tg mice. The source says: FIG. 8 is an immunohistochemical analysis of Ki-67, p-mTOR, HIF1α and Cyp1a1 protein expression in MMTV-PyMT-Tg mice treated with and without Carbidopa. […] Hypoxia is a key regulatory factor in tumor progression and in response to the hypoxic tumor environment, it regulates cell metabolism and redox homeostasis. HIF1α level in tumors is controlled by mTOR. […] To further validate the data, the inventors measured the expression of Cyp1a1 in MMTV-PyMT-Tg mice treated with and without Carbidopa. Cyp1a1 is an aryl hydrocarbon (AhR) receptor-responsive gene induced in response to AhR activation. AhR is activated by kynurenine, a product of IDO1 action on tryptophan. Thus, Cyp1a1 levels in tumor tissues serve as a read out for IDO1 activity. […] H&E, hematoxylin and eosin stain.

Data set [5] concerns the target recombinant human indoleamine dioxygenase-1 (IDO1) (Homo sapiens, UniProt P14902). The experiment in a line: IDO1 enzymatic activity assay (colorimetric). The data set is classed as biochemical. The text has this:
IDO-1 is an immunosuppressive enzyme that is induced in tumor cells and in immune cells present in tumor-draining lymph nodes. Induction of this enzyme suppresses the ability of the immune system to recognize tumor cells as foreign cells, which provides a means for the tumor cells to escape the immune attack. Pharmacological inhibition of this enzyme has potential in cancer treatment because such an approach will potentiate the ability of the immune system to kill the tumor cells. Many pharmaceutical companies have research programs in identifying selective inhibitors of IDO-1 for this purpose and some of the drugs are already in clinical trials in cancer patients. The present inventors assessed the ability of Carbidopa on the activity of this enzyme using the recombinant human enzyme.
To date, the only known pharmacological action of Carbidopa is the inhibition of aromatic amino acid decarboxylase, but the inventors are not aware of any direct association between this enzyme and cancer. Therefore, the inventors looked for new, hitherto unknown, pharmacological actions for this drug that could be related to the observed anticancer effect. […]

In data set [6] the test system is AhR. The experiment in a line: Immunofluorescence localisation of AhR. The data set is classed as cell-based, human. Conditions: 25 μM for 6 h.
Protocol: Immunofluorescence. Immunofluorescence studies were performed as described [12]. Briefly, cells grown on chamber slides were fixed, blocked and stained with mouse anti-AhR antibody (Abcam, Cambridge, Mass., USA) for 45 min after which they were washed and stained with secondary antibody (goat anti-mouse IgG) conjugated with Alexa Fluor 488 (Molecular Probes, Eugene, Oreg., USA); further washed and mounted with ProLong Diamond Antifade mountant with DAPI and the images were captured using a Nikon inverted microscope. Nuclei stained with DAPI are blue. Magnification, 100×.
Data set [7] deals with AhR.
Protocol: With a fixed concentration (10 μM), the inventors compared in HepG2 cells the induction of CYP1A1 by Carbidopa with that by other known AhR agonists, which included 3-ethylcholanthrene, benzo[a]pyrene, kynurenine, indole-3-carbinol, and indole acetic acid (Table 1).
The conditions of data set [8]: human, oral, cited from earlier work.
The conditions of data set [9]: cited from earlier work.
The conditions of data set [10]: in vivo; cited from earlier work.
The conditions of data set [11]: in vivo; cited from earlier work. The source holds these as a separate data set.
For data set [12], the system named is AhR. Conditions: BxPC-3, Carbidopa 10 μM, 6 h.
The test system of data set [13] is AhR. Conditions: Capan-2.
Data set [14] concerns the target indoleamine-2,3-dioxygenase 1 (IDO1) (Homo sapiens, UniProt P14902). Conditions: reference [13]; cited from earlier work.

Like-named read-outs stand apart in the source and are kept apart here.

Chain of recombinant human indoleamine dioxygenase-1 (IDO1) (P14902 whole entry): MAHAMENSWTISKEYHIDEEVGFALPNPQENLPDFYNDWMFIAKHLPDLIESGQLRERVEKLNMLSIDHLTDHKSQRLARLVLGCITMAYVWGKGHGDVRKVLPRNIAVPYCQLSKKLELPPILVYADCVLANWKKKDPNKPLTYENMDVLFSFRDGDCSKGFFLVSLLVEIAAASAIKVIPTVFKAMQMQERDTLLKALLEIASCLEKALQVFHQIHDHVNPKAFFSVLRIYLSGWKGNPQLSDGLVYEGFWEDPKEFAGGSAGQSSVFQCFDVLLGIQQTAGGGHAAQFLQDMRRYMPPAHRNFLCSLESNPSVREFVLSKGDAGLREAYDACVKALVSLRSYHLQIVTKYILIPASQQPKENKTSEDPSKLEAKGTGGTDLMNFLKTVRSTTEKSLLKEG
Chain of indoleamine-2,3-dioxygenase 1 (IDO1) (P14902 whole entry): as above

Consider `C[C@@](Cc1ccc(O)c(O)c1)(NN)C(=O)O` [Carbidopa, (2S)-3-(3,4-dihydroxyphenyl)-2-hydrazino-2-methylpropanoic acid], for which the “growth of BxPC-3 cells” value with BxPC-3 cells [1] (10 μM Carbidopa, colony formation) was “almost completely abolished”. Besides, the “number of colonies compared to untreated controls” value is reported as “significantly reduced” in the data set with BxPC-3 cells [1] (BxPC-3, 10 μM, two weeks); “significantly reduced” in the data set on Capan-2 cells; “not seen” in the data set on hTERT-HPNE cells. The IC50 was below 50 µM with Panc-1 cells; below 15 µM in the data set with MB-231 cells (Homo sapiens, MB-231, colony formation, read-out: Carbidopa concentration for 50% inhibition of growth); below 25 µM in the data set on HCC-1937 cells (Homo sapiens, HCC1937, HCC-1937, colony formation, read-out: Carbidopa concentration for 50% inhibition of growth). In addition, the “effect on the growth of the cells” value is recorded as “marked inhibitory effect” in the data set on MB-231 cells (MB-231, dose response) and “marked inhibitory effect” in the data set with HCC-1937 cells (HCC-1937, dose response). Moreover, the “growth of the tumor” value in the data set with BxPC-3 cells [2] (1 mg/mouse i.p. every day, prevention mode) is given as “reduced the growth of the tumor markedly”. Further, the “tumor volume compared to untreated controls” value in the data set with BxPC-3 cells [2] (daily dose of 1 mg/mouse, intraperitoneal) was “significantly reduced the tumor volume”. Also, the “number and size of the tumors” value in data set [3] (treatment for three months) was “reduced the number and size of the tumors”; in data set [3] (treatment for two months), “reduced the number and size of the tumors”. The “Cyp1a1 expression in tumor tissues” value in data set [4] is reported as “significant reduction in Cyp1a1 expression”. Besides, in [4], the HIF1α protein result is “marked decrease in HIF1α protein”. For the same compound, the “Ki-67 staining (cell proliferation)” value in [4] is on record as “marked reduction in proliferation”. Moreover, the p-mTOR staining entry in [4] is “marked reduction in p-mTOR staining”. In addition, the “inhibition of IDO-1 enzyme activity” value in data set [5] (10 μM) is “inhibits IDO-1 significantly”. Also, the “inhibition of IDO1 enzyme activity” value in data set [5] (colorimetric assay of kynurenine, efficacy said to be markedly underestimated) is recorded as “does indeed inhibit IDO1”. Further, the “localisation of AhR” value is “nuclear translocation of the receptor” in the data set on AhR [6] (BxPC-3 cells), “nuclear translocation of the receptor” in the data set on AhR [6] (Capan-2 cells) and “led to the nuclear translocation of AhR” with AhR [6] (HepG2 cells). In addition, in the data set with AhR [7], the “concentrations at which Carbidopa activates AhR” value is 3000 to 10000 nM. Besides, the “CYP1A1 expression, Fold [range]” value in the data set with AhR [7] (human, 10 μM) came to 2.63 Fold. Further, the “time post-treatment at which CYP1A1 induction is seen” value in the data set on AhR [7] (human, 10 μM) was at most 3 h. Moreover, the figures for the plasma concentration in data set [8] (75 mg/day dose) and in [8] (450 mg/day dose) were 2000 nM and 16000 nM, respectively. Moreover, in data set [9] (<400 mg/day in patients weighing 60 kg), the “side effects in humans” value is “no unwanted side effects”. Besides, the safety in humans result in [9] (dose as high as 450 mg/day) is “safe”. In data set [10], the “crossing of the blood-brain barrier” value is recorded as “inability of the latter to cross the blood-brain barrier”. Further, the oral bioavailability result in [11] is given as “orally bioavailable”.
Consider `Cc1ccc2cc3c(ccc4ccccc43)c3c2c1CC3` [3-Methylcholanthrene], for which the “CYP1A1 expression, Fold [range]” value in the data set on AhR [7] (HepG2 cells, 10 micromolar) is on record as 56.8 Fold.
As for `Nc1ccccc1C(=O)CC(N)C(=O)O` (stereo not shown) [Kynurenine], the “CYP1A1 expression, Fold [range]” value with AhR [7] (human, 10 μM) is recorded as 3.97 Fold.
In the case of `Cc1ccccc1N=Nc1ccc(NC(=O)c2ccnn2C)c(C)c1` [CH223191], the “effect of AhR antagonist on Carbidopa-induced CYP1A1 expression” value with AhR [7] (HepG2, Carbidopa 10 μM, CH223191 10 μM, resveratrol 20 μM, 6 h) is reported as “blocked”; in the data set with AhR [12], “blocked”; in the data set with AhR [13] it was “blocked”.
Regarding `N[C@@H](Cc1ccc(O)c(O)c1)C(=O)O` [L-DOPA, L-3,4-dihydroxyphenylalanine], the “CYP1A1 mRNA expression” value in the data set on AhR [7] (human, 6 h, 100 μM) is “did not affect CYP1A1 expression”.
Take `OCc1c[nH]c2ccccc12` [Indole 3-carbinol]: in the data set on AhR [7] (HepG2 cells, 10 micromolar), the “CYP1A1 expression, Fold [range]” value is reported as 7.62 Fold.
Turning to `NNc1ccccc1` [phenylhydrazine], the IC50 in data set [14] is 8 ± 2 µM.
`c1ccc2c(c1)cc1ccc3cccc4ccc2c1c34` [Benzo [a] pyrene]: the “CYP1A1 expression, Fold [range]” value in the data set with AhR [7] (HepG2 cells, 10 micromolar) is 35.3 Fold.

Values taken from US10064834B2, “Carbidopa for the treatment of cancer” (Texas Tech University System, priority 2016, dated 2018).
